Results as given in patent US10669272B2, “Substituted naphthyridinone compounds useful as T cell activators” (BRISTOL-MYERS SQUIBB COMPANY, priority 2018, dated 2020).
Where two headings read alike, the source gives them in different places.

Tests used:
[1] = target: T1, human DGKζ (Homo sapiens, UniProt Q13574); assay: DGKζ LIPGLO assay (extruded liposome substrate), in vitro DGK inhibition; format: biochemical; conditions: read-out: DGKz LIPGLO IC50
T1 construct: TVMV protease cleavage site (C); Hexa-His (C); made in house; host or cells: Sf9 insect cells (baculovirus, Bac-to-Bac)

[2] = target: T2, human DGKα (Homo sapiens, UniProt P23743); assay: DGKα LIPGLO assay (extruded liposome substrate), in vitro DGK inhibition; format: biochemical; conditions: read-out: DGKa LIPGLO IC50
T2 construct: TVMV protease cleavage site (C); Hexa-His (C); made in house; host or cells: Sf9 insect cells (baculovirus, Bac-to-Bac)

[3] = tested on: naïve human CD8 T cells; assay: Human CD8 T cells IFN-γ assay; format: cell-based; conditions: read-out: HuCD8 INFG Normalized EC50;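 also: Naïve human CD8 T cells stimulated with plate-bound anti-CD3 and soluble anti-CD28, IFN-γ in supernatant quantified by AlphaLISA and converted to pg/mL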
[4] = tested on: Human venous whole blood; assay: Human whole blood IFN-γ assay; format: cell-based; conditions: human whole blood, read-out: INFg Whole Blood Normalized Agonist EC50;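 also: blood from healthy donors exposed to compound for 1 h before stimulation with anti-CD3 and anti-CD28 at 1 µg/mL each, IFN-γ quantified in supernatant by AlphaLISA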
[5] = Homo sapiens, T-cell, 20 h, naïve human CD8 T cells, anti-CD3 plus anti-CD28, 3 μM reference compound = 100% activation
[6] = anti-CD3 plus anti-CD28, 24 hours, 3 μM reference compound = 100% activation
[7] = Homo sapiens, T-cell, 20 h, normalized to 3 μM reference compound with anti-CD3 plus anti-CD28 as 100% activation
[8] = Homo sapiens, 24 h, normalized to 3 μM reference compound with anti-CD3 plus anti-CD28 as 100% activation
[9] = normalized to 3 μM reference compound with anti-CD3 plus anti-CD28 as 100% activation
[10] = Homo sapiens, normalized to 3 μM reference compound with anti-CD3 plus anti-CD28 as 100% activation

T2 sequence (P23743 with tags, fused parts or gaps): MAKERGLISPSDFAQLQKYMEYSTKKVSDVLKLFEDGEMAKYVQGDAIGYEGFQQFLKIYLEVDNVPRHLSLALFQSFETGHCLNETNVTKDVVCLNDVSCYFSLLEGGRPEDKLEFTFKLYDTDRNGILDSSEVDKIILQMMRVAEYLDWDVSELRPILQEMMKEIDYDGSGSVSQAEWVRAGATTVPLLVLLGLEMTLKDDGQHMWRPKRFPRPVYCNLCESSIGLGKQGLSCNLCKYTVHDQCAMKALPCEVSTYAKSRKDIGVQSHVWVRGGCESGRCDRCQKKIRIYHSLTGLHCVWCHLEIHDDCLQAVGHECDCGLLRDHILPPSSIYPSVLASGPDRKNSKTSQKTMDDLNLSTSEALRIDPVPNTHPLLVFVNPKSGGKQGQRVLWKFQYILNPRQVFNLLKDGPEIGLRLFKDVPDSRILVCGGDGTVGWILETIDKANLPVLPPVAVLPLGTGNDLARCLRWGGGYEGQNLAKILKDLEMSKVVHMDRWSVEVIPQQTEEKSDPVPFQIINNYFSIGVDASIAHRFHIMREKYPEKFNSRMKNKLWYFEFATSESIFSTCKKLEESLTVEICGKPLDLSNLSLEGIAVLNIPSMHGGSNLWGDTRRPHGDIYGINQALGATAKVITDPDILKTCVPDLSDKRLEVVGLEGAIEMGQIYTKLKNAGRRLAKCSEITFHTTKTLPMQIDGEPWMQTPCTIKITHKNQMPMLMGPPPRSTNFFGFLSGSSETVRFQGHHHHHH
T1 sequence (Q13574 with tags, fused parts or gaps isoform Q13574-4): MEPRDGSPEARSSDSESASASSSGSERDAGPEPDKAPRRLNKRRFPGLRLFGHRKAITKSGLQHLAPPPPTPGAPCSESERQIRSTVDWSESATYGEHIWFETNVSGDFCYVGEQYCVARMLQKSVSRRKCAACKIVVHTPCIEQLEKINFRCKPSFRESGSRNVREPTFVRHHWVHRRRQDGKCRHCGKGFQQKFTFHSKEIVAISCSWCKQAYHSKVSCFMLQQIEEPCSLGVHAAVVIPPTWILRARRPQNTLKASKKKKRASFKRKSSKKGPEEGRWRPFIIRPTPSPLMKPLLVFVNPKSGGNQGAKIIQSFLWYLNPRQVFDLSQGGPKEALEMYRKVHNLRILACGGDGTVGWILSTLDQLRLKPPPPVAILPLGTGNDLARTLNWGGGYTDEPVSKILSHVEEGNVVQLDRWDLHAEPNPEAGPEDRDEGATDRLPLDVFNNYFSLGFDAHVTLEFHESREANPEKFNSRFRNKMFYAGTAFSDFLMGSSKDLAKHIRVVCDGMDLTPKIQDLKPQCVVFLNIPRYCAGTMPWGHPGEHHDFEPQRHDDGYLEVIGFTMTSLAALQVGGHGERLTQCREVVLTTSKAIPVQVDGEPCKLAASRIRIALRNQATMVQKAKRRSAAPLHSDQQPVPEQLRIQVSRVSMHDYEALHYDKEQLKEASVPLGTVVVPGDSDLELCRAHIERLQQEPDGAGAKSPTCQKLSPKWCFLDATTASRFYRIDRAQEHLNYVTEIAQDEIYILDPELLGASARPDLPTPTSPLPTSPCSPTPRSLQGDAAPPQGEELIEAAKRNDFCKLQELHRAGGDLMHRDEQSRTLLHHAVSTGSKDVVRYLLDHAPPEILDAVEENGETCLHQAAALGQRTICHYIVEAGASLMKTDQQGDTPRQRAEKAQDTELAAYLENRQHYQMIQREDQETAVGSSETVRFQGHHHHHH

SMILES | IC50 ([1]; liposome (LIPGLO) assay) | IC50 ([2]; liposome (LIPGLO) assay) | EC50 [3, 7] | EC50 [4, 8] | other results
Cc1ccc(C(c2ccc(F)cc2)N2CCN(c3c(C#N)c(=O)n(C)c4ccc(C#N)nc34)C[C@H]2C)nc1 (single isomer, unassigned) [Example 915] | – | – | – | – | IC50 ([1]; DGKζ liposome (LIPGLO) assay): 1300 nM; IC50 ([2]; DGKα liposome (LIPGLO) assay): 740 nM; EC50 [3, 5]: 100 nM; EC50 [4, 6]: 550 nM
CC(C)[C@H]1CN(c2cc(=O)n(C)c3ccc(C#N)nc23)CCN1C(c1ccc(F)cc1)c1ccc(F)cc1 [Example 10, (S)-8-(4-(bis(4-fluorophenyl)methyl)-3-isopropylpiperazin-1-yl)-5-methyl-6-oxo-5,6-dihydro-1,5-naphthyridine-2-carbonitrile] | 5100 nM | 97000 nM | 150 nM | 5000 nM | –
CCc1cc(F)ccc1C(c1ccc(F)cc1)N1C[C@H](C)N(c2cc(=O)n(C)c3ccc(C#N)nc23)C[C@H]1C (single isomer, unassigned) [Example 228] | 1400 nM | 58000 nM | – | – | EC50 [3, 9]: 31 nM; EC50 [4, 9]: 2800 nM
C[C@@H]1CN(c2cc(=O)n(C)c3ccc(C#N)nc23)[C@@H](C)CN1Cc1cc(F)ccc1F [Example 262, 8-[(2S,5R)-4-[(2,5-difluorophenyl)methyl]-2,5-dimethylpiperazin-1-yl]-5-methyl-6-oxo-5,6-dihydro-1,5-naphthyridine-2-carbonitrile] | 2500 nM | 640 nM | 310 nM | 7100 nM | –
C[C@@H]1CN(c2cc(=O)n(C)c3ccc(C#N)nc23)[C@@H](C)CN1Cc1ccc(F)cc1C(F)F [Example 242, 8-[(2S,5R)-4-{[2-(difluoromethyl)-4-fluorophenyl]methyl}-2,5-dimethylpiperazin-1-yl]-5-methyl-6-oxo-5,6-dihydro-1,5-naphthyridine-2-carbonitrile] | 970 nM | 4400 nM | 170 nM | – | EC50 [4, 10]: 1500 nM
Cc1cccc(C(c2ccc(F)cc2)N2CCN(c3c(C#N)c(=O)n(C)c4ccc(C#N)nc34)C[C@H]2C)n1 (single isomer, unassigned) [Example 906] | – | – | – | – | IC50 ([1]; DGKζ liposome (LIPGLO) assay): 940 nM; IC50 ([2]; DGKα liposome (LIPGLO) assay): 1000 nM; EC50 [3, 5]: 67 nM; EC50 [4, 6]: 810 nM
Cn1c(=O)cc(N2CCN(C(c3ccc(F)cc3)c3ccc(F)cc3)C(C#N)C2)c2nc(C#N)ccc21 (stereo not shown) [Example 43, 8-(4-(bis(4-fluorophenyl)methyl)-3-cyanopiperazin-1-yl)-5-methyl-6-oxo-5,6-dihydro-1,5-naphthyridine-2-carbonitrile] | 3100 nM | 6200 nM | 87 nM | 1200 nM | –
C[C@@H]1CN(c2cc(=O)n(C)c3ccc(C#N)nc23)[C@@H](C)CN1C(c1ccccc1)c1ccccc1Cl (stereo partly drawn) [Example 259, 8-[(2S,5R)-4-[(2-chlorophenyl)(phenyl)methyl]-2,5-dimethylpiperazin-1-yl]-5-methyl-6-oxo-5,6-dihydro-1,5-naphthyridine-2-carbonitrile] | 840 nM | 3100 nM | 550 nM | 2100 nM | –
COc1ncccc1C(c1ccc(F)cc1)N1C[C@H](C)N(c2cc(=O)n(C)c3ccc(C#N)nc23)C[C@H]1C (single isomer, unassigned) [Example 209] | 320 nM | 15000 nM | 170 nM | 1500 nM | –
C[C@@H]1CN(c2c(C#N)c(=O)n(C)c3ccc(C#N)nc23)CCN1C(c1ccc(F)cc1)c1ccc(C(F)(F)F)cn1 (single isomer, unassigned) [Example 896] | – | – | – | – | IC50 ([1]; DGKζ liposome (LIPGLO) assay): 600 nM; IC50 ([2]; DGKα liposome (LIPGLO) assay): 190 nM; EC50 [3, 5]: 150 nM; EC50 [4, 6]: 210 nM
C[C@@H]1CN(c2cc(=O)n(C)c3ccc(C#N)nc23)[C@@H](C)CN1Cc1ccccc1O [Example 245, 8-[(2S,5R)-4-[(2-hydroxyphenyl)methyl]-2,5-dimethylpiperazin-1-yl]-5-methyl-6-oxo-5,6-dihydro-1,5-naphthyridine-2-carbonitrile] | 1100 nM | 8.6 nM | 750 nM | 5200 nM | –
C[C@@H]1CN(c2cc(=O)n(C)c3ccc(C#N)nc23)[C@@H](C)CN1C(c1ccccc1)c1ccc(F)cc1 (mixture of isomers) [Example 182, 8-[(2S,5R)-4-[(4-fluorophenyl)(phenyl)methyl]-2,5-dimethylpiperazin-1-yl]-5-methyl-6-oxo-5,6-dihydro-1,5-naphthyridine-2-carbonitrile] | 1600 nM | 870 nM | 30 nM | – | EC50 [4, 10]: 680 nM
C[C@@H]1CN(c2c(C#N)c(=O)n(C)c3ccc(C#N)nc23)CCN1C(c1ccc(F)cc1)c1cccc(C(F)(F)F)n1 (single isomer, unassigned) [Example 922] | – | – | – | – | IC50 ([1]; DGKζ liposome (LIPGLO) assay): 780 nM; IC50 ([2]; DGKα liposome (LIPGLO) assay): 1500 nM; EC50 [3, 5]: 160 nM; EC50 [4, 6]: 430 nM
C[C@@H]1CN(c2cc(=O)n(C)c3ccc(C#N)nc23)[C@@H](C)CN1C(c1ccc(F)cc1)c1nc(-c2ccc(F)cc2)no1 (single isomer, unassigned) [Example 742] | – | – | – | – | IC50 ([1]; DGKζ liposome (LIPGLO) assay): 790 nM; IC50 ([2]; DGKα liposome (LIPGLO) assay): 150 nM; EC50 ([3]; naïve human CD8 T cells, anti-CD3 plus anti-CD28, 3 μM reference compound = 100% activation): 1.5 nM; EC50 [4, 6]: 140 nM
Cc1ccc(C(c2ccc(Cl)cc2)N2C[C@H](C)N(c3cc(=O)n(C)c4ccc(C#N)nc34)C[C@H]2C)nc1 (single isomer, unassigned) [Example 214] | 290 nM | 72 nM | – | – | EC50 [3, 9]: 120 nM; EC50 [4, 9]: 620 nM

Second part, led by results:

IC50 ([1]; liposome (LIPGLO) assay) | IC50 ([2]; liposome (LIPGLO) assay) | SMILES | EC50 [3, 7] | EC50 [4, 8] | other results
660 nM | 1800 nM | COC[C@@H]1CN(c2cc(=O)n(C)c3ccc(C#N)nc23)[C@@H](C)CN1C(c1ccc(F)cc1)c1ccc(F)cc1 [Example 1155, 8-((2S,5S)-4-(bis(4-fluorophenyl)methyl)-5-(methoxymethyl)-2-methylpiperazin-1-yl)-5-methyl-6-oxo-5,6-dihydro-1,5-naphthyridine-2-carbonitrile] | 3.5 nM | 860 nM | –
2400 nM | 3100 nM | Cc1ccc(C(c2cncc(F)c2)N2C[C@H](C)N(c3cc(=O)n(C)c4ccc(C#N)nc34)C[C@H]2C)cc1 (single isomer, unassigned) [Example 391] | 81 nM | – | EC50 [4, 9]: 890 nM
270 nM | 250 nM | CC[C@@H]1CN(c2cc(=O)n(C)c3ccc(C#N)nc23)[C@@H](C)CN1C(c1ccc(F)cc1)c1ccc(C#N)cc1 (single isomer, unassigned) [Example 1103] | – | – | EC50 [3, 9]: 21 nM; EC50 [4, 9]: 260 nM
2700 nM | 1300 nM | C[C@@H]1CN(c2cc(=O)n(C)c3ccc(C#N)nc23)[C@@H](C)CN1C(c1ccc(OC(F)(F)F)cc1)c1cccc(F)n1 (single isomer, unassigned) [Example 367] | 13 nM | 460 nM | –
1000 nM | 890 nM | C[C@@H]1CN(c2cc(=O)n(C)c3ccc(C#N)nc23)[C@@H](C)CN1C(c1ccc(F)cc1)c1ccc(Cl)cc1 (stereo partly drawn) [Example 300, 8-[(2S,5R)-4-[(4-chlorophenyl)(4-fluorophenyl)methyl]-2,5-dimethylpiperazin-1-yl]-5-methyl-6-oxo-5,6-dihydro-1,5-naphthyridine-2-carbonitrile] | 21 nM | 120 nM | –
450 nM | 990 nM | C[C@@H]1CN(c2cc(=O)n(C)c3ccc(C#N)nc23)[C@@H](C)CN1C(c1ccccc1)c1c(F)cccc1F (single isomer, unassigned) [Example 272] | 79 nM | – | EC50 [4, 9]: 2500 nM
4800 nM | 140000 nM | C[C@@H]1CN(c2cc(=O)n(C)c3ccc(C#N)nc23)[C@@H](C)CN1C(c1ccc(F)cc1)c1cccc2c1OC(F)(F)O2 (stereo partly shown) [Example 669] | – | – | EC50 [3, 9]: 96 nM; EC50 [4, 9]: 860 nM
6600 nM | 50000 nM | C[C@H]1CN(C(c2ccc(F)cc2)c2ccc(F)cc2)[C@H](CN2CCOCC2)CN1c1cc(=O)n(C)c2ccc(C#N)nc12 [Example 1167, 8-((2S,5R)-4-(bis(4-fluorophenyl)methyl)-2-methyl-5-(morpholinomethyl)piperazin-1-yl)-5-methyl-6-oxo-5,6-dihydro-1,5-naphthyridine-2-carbonitrile] | 47 nM | 970 nM | –
1400 nM | 640 nM | CC[C@@H]1CN(c2cc(=O)n(C)c3ccc(C#N)nc23)[C@@H](C)CN1C(c1ccc(F)cc1)c1ccc(C#N)cc1 (single isomer, unassigned) [Example 1102] | 31 nM | 220 nM | –
400 nM | 150 nM | Cc1ccc(C(c2ccc(Cl)cc2)N2C[C@H](C)N(c3cc(=O)n(C)c4ccc(C#N)nc34)C[C@H]2C)nc1 (single isomer, unassigned) [Example 363] | 99 nM | – | EC50 [4, 9]: 130 nM
